Reference: patent publication US11970474B2, “Substituted benzodiazoles and use thereof in therapy” (THOMAS HELLEDAYS STIFTELSE FÖR MEDICINSK FORSKNING, priority 2018, dated 2024)

Target: OGG1 (Homo sapiens (Human), UniProt O15527)
Experiment: In vitro OGG1 activity assay
Format: biochemical
Settings: 800 pM OGG1 enzyme, 2 nM human APEX1, 10 nM 8-oxoA:C substrate
Protocol: Method 1: In Vitro OGG1 Activity Assay OGG1 activity is assayed by measuring the increase in fluorescence from a duplex oligonucleotide containing an OGG1 substrate and a fluorophore in close proximity that are quenched by a quencher on the complementary strand. […] OGG1 activity releases the substrate base from DNA by cleaving the N-glycosidic bond between base and deoxyribose. The resulting apurinic site is cleaved by an excessive amount APEX1 activity which cause the duplex to melt, which in turn cause the fluorophore to become unquenched. Compounds to be tested are dissolved in DMSO and nano-dispensed directly into black 384-well plates, followed by transfer of enzyme and substrate solutions. […] The fluorescent signal is recorded in a plate reader equipped with suitable filters to register fluorescein fluorescence.

Sequence of OGG1 (O15527 whole entry): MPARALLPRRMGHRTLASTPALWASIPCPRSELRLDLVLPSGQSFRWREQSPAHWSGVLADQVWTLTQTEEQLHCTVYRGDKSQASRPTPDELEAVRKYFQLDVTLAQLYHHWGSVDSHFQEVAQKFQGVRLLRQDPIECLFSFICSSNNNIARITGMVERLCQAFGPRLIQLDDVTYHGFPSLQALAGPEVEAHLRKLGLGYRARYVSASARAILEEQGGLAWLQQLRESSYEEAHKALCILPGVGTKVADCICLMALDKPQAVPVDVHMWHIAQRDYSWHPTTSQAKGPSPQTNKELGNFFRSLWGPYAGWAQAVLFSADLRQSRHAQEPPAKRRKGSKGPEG

Row | Compound | IC50
1 | COc1ccc(NC(=O)N2CCC(n3c(=O)[nH]c4cc(F)ccc43)CC2)cc1Cl [Example 173, N-(3-Chloro-4-methoxyphenyl)-4-(5-fluoro-2-oxo-2,3-dihydro-1H-1,3-benzodiazol-1-yl)piperidine-1-carboxamide] | 2420 nM
2 | COc1ccc(NC(=O)N2CCC(n3c(=O)[nH]c4c(N)cccc43)CC2)cc1Cl [Example 174, 4-(4-Amino-2-oxo-2,3-dihydro-1H-1,3-benzodiazol-1-yl)-N-(3-chloro-4-methoxyphenyl)piperidine-1-carboxamide] | 2540 nM
3 | CCCNc1cccc2c1[nH]c(=O)n2C1CCN(C(=O)Nc2ccc(OC)c(Cl)c2)CC1 [Example 175, N-(3-Chloro-4-methoxyphenyl)-4-[2-oxo-4-(propylamino)-2,3-dihydro-1H-1,3-benzodiazol-1-yl]piperidine-1-carboxamide] | 2620 nM
4 | COc1ccc(NC(=O)N2CCC(n3c(=O)[nH]c4c(SC)cccc43)CC2)cc1Cl [Example 176, N-(3-Chloro-4-methoxyphenyl)-4-[4-(methylsulfanyl)-2-oxo-2,3-dihydro-1H-1,3-benzodiazol-1-yl]piperidine-1-carboxamide] | 1080 nM
5 | COc1ccc(NC(=O)N2CCC(n3c(=O)[nH]c4cc(C#N)ccc43)CC2)cc1Cl [Example 178, N-(3-Chloro-4-methoxyphenyl)-4-(5-cyano-2-oxo-2,3-dihydro-1H-1,3-benzodiazol-1-yl)piperidine-1-carboxamide] | 6920 nM
6 | O=c1[nH]c2c(Br)cccc2n1[C@H]1CC[C@@H](C(=O)Nc2cnc(Cl)c(Cl)c2)CC1 [Example 185, Cis-4-(4-bromo-2-oxo-2,3-dihydro-1H-1,3-benzodiazol-1-yl)-N-(5,6-dichloropyridin-3-yl)cyclohexane-1-carboxamide] | 1390 nM
7 | O=c1[nH]c2c(Br)cccc2n1[C@H]1CC[C@@H](C(=O)Nc2cccc3cn[nH]c23)CC1 [Example 186, Cis-4-(4-bromo-2-oxo-2,3-dihydro-1H-1,3-benzodiazol-1-yl)-N-(1H-indazol-7-yl)cyclohexane-1-carboxamide] | 2030 nM
8 | O=c1[nH]c2c(Br)cccc2n1[C@H]1CC[C@@H](C(=O)Nc2cncc(Cl)c2)CC1 [Example 188, Cis-4-(4-bromo-2-oxo-2,3-dihydro-1H-1,3-benzodiazol-1-yl)-N-(5-chloropyridin-3-yl)cyclohexane-1-carboxamide] | 4630 nM
9 | Cc1ccc(NC(=O)[C@H]2CC[C@@H](n3c(=O)[nH]c4c(Br)cccc43)CC2)cn1 [Example 190, Cis-4-(4-bromo-2-oxo-2,3-dihydro-1H-1,3-benzodiazol-1-yl)-N-(6-methylpyridin-3-yl)cyclohexane-1-carboxamide] | 467 nM
10 | Nc1cccc(NC(=O)[C@H]2CC[C@@H](n3c(=O)[nH]c4c(Br)cccc43)CC2)c1 [Example 195, Cis-N-(3-aminophenyl)-4-(4-bromo-2-oxo-2,3-dihydro-1H-1,3-benzodiazol-1-yl)cyclohexane-1-carboxamide] | 3560 nM
11 | O=c1[nH]c2c(Br)cccc2n1[C@H]1CC[C@@H](C(=O)Nc2cccc(O)c2)CC1 [Example 196, Cis-4-(4-bromo-2-oxo-2,3-dihydro-1H-1,3-benzodiazol-1-yl)-N-(3-hydroxyphenyl)cyclohexane-1-carboxamide] | 647 nM
12 | CN(C)c1cccc(NC(=O)[C@H]2CC[C@@H](n3c(=O)[nH]c4c(Br)cccc43)CC2)c1 [Example 198, Cis-4-(4-bromo-2-oxo-2,3-dihydro-1H-1,3-benzodiazol-1-yl)-N-[3-(dimethylamino)phenyl]cyclohexane-1-carboxamide] | 5370 nM
13 | CN(C)c1ccc(NC(=O)[C@H]2CC[C@@H](n3c(=O)[nH]c4c(Br)cccc43)CC2)cc1 [Example 200, Cis-4-(4-bromo-2-oxo-2,3-dihydro-1H-1,3-benzodiazol-1-yl)-N-[4-(dimethylamino)phenyl]cyclohexane-1-carboxamide] | 631 nM
14 | COc1ccc(NC(=O)[C@H]2CC[C@@H](n3c(=O)[nH]c4c(OC)cccc43)CC2)cc1 [Example 205, Cis-4-(4-methoxy-2-oxo-2,3-dihydro-1H-1,3-benzodiazol-1-yl)-N-(4-methoxyphenyl)cyclohexane-1-carboxamide] | 74.5 nM
15 | COc1cc(NC(=O)N2CCC(n3c(=O)[nH]c4ccccc43)CC2)ccc1C [Example 210, N-(3-Methoxy-4-methylphenyl)-4-(2-oxo-2,3-dihydro-1H-1,3-benzodiazol-1-yl)piperidine-1-carboxamide] | 9490 nM
16 | COc1ccc(NC(=O)[C@H]2CC[C@@H](n3c(=O)[nH]c4c(F)cccc43)CC2)cc1 [Example 211, Cis-4-(4-fluoro-2-oxo-2,3-dihydro-1H-1,3-benzodiazol-1-yl)-N-(4-methoxyphenyl)cyclohexane-1-carboxamide] | 153 nM
17 | COc1ccc(NC(=O)[C@H]2CC[C@@H](n3c(=O)[nH]c4c(F)cccc43)CC2)cc1F [Example 213, Cis-4-(4-fluoro-2-oxo-2,3-dihydro-1H-1,3-benzodiazol-1-yl)-N-(3-fluoro-4-methoxyphenyl)cyclohexane-1-carboxamide] | 155 nM
18 | O=c1[nH]c2c(F)cccc2n1[C@H]1CC[C@@H](C(=O)Nc2ccc3cc[nH]c3c2)CC1 [Example 215, Cis-4-(4-fluoro-2-oxo-2,3-dihydro-1H-1,3-benzodiazol-1-yl)-N-(1H-indol-6-yl)cyclohexane-1-carboxamide] | 580 nM
19 | COc1ccc(NC(=O)[C@H]2CC[C@@H](n3c(=O)[nH]c4ccc(F)cc43)CC2)cc1C [Example 217, Cis-4-(6-fluoro-2-oxo-2,3-dihydro-1H-1,3-benzodiazol-1-yl)-N-(4-methoxy-3-methylphenyl)cyclohexane-1-carboxamide] | 586 nM
20 | COc1ccc(NC(=O)[C@H]2CC[C@@H](n3c(=O)[nH]c4ccc(F)cc43)CC2)cc1F [Example 218, Cis-4-(6-fluoro-2-oxo-2,3-dihydro-1H-1,3-benzodiazol-1-yl)-N-(3-fluoro-4-methoxyphenyl)cyclohexane-1-carboxamide] | 9010 nM

The remaining compounds from weak to strong by IC50, led by results:

Row | IC50 | Compound
21 | 8890 nM | COc1ccc(NC(=O)N2CCC(n3c(=O)[nH]c4c(C)ccnc43)CC2)cc1Cl [Example 180, N-(3-Chloro-4-methoxyphenyl)-4-{7-methyl-2-oxo-1H,2H,3H-imidazo[4,5-b]pyridin-3-yl}piperidine-1-carboxamide]
22 | 8130 nM | COc1ccc(NC(=O)[C@H]2CC[C@@H](n3c(=O)[nH]c4ccc(F)cc43)CC2)cc1 [Example 216, Cis-4-(6-fluoro-2-oxo-2,3-dihydro-1H-1,3-benzodiazol-1-yl)-N-(4-methoxyphenyl)cyclohexane-1-carboxamide]
23 | 7090 nM | COc1ccc(NC(=O)N2CCC(n3c(=O)[nH]c4cc(C)cnc43)CC2)cc1Cl [Example 181, N-(3-Chloro-4-methoxyphenyl)-4-{6-methyl-2-oxo-1H,2H,3H-imidazo[4,5-b]pyridin-3-yl}piperidine-1-carboxamide]
24 | 6270 nM | Cc1nc2ccc(NC(=O)[C@H]3CC[C@@H](n4c(=O)[nH]c5c(Br)cccc54)CC3)cc2o1 [Example 203, Cis-4-(4-bromo-2-oxo-2,3-dihydro-1H-1,3-benzodiazol-1-yl)-N-(2-methyl-1,3-benzoxazol-6-yl)cyclohexane-1-carboxamide]
25 | 5020 nM | COc1ccc(NC(=O)N2CCC(n3c(=O)[nH]c4c(Br)cccc43)C(O)C2)cc1Cl (centres unmarked) [Example 177, 4-(4-Bromo-2-oxo-2,3-dihydro-1H-1,3-benzodiazol-1-yl)-N-(3-chloro-4-methoxyphenyl)-3-hydroxypiperidine-1-carboxamide]
26 | 4790 nM | COc1ccc(NC(=O)N2CCC(n3c(=O)[nH]c4c(F)cccc43)CC2)cc1Cl [Example 182, N-(3-Chloro-4-methoxyphenyl)-4-(4-fluoro-2-oxo-2,3-dihydro-1H-1,3-benzodiazol-1-yl)piperidine-1-carboxamide]
27 | 1760 nM | Cc1ccc(NC(=O)[C@H]2CC[C@@H](n3c(=O)[nH]c4c(Br)cccc43)CC2)nc1 [Example 189, Cis-4-(4-bromo-2-oxo-2,3-dihydro-1H-1,3-benzodiazol-1-yl)-N-(5-methylpyridin-2-yl)cyclohexane-1-carboxamide]
28 | 1570 nM | COc1ccc(NC(=O)N2CCC(n3c(=O)[nH]c4cc(C)ccc43)CC2)cc1Cl [Example 179, N-(3-Chloro-4-methoxyphenyl)-4-(5-methyl-2-oxo-2,3-dihydro-1H-1,3-benzodiazol-1-yl)piperidine-1-carboxamide]
29 | 1380 nM | COc1cc(NC(=O)[C@H]2CC[C@@H](n3c(=O)[nH]c4c(Br)cccc43)CC2)cc(OC)c1OC [Example 193, Cis-4-(4-bromo-2-oxo-2,3-dihydro-1H-1,3-benzodiazol-1-yl)-N-(3,4,5-trimethoxyphenyl)cyclohexane-1-carboxamide]
30 | 556 nM | COc1ncc(NC(=O)[C@H]2CC[C@@H](n3c(=O)[nH]c4c(F)cccc43)CC2)cc1C [Example 214, Cis-4-(4-fluoro-2-oxo-2,3-dihydro-1H-1,3-benzodiazol-1-yl)-N-(6-methoxy-5-methylpyridin-3-yl)cyclohexane-1-carboxamide]
31 | 115 nM | COc1ncc(NC(=O)[C@H]2CC[C@@H](n3c(=O)[nH]c4c(OC)cccc43)CC2)cc1C [Example 208, Cis-4-(4-methoxy-2-oxo-2,3-dihydro-1H-1,3-benzodiazol-1-yl)-N-(6-methoxy-5-methylpyridin-3-yl)cyclohexane-1-carboxamide]
32 | 73.6 nM | COc1ccc(NC(=O)[C@H]2CC[C@@H](n3c(=O)[nH]c4c(OC)cccc43)CC2)cc1F [Example 207, Cis-N-(3-fluoro-4-methoxyphenyl)-4-(4-methoxy-2-oxo-2,3-dihydro-1H-1,3-benzodiazol-1-yl)cyclohexane-1-carboxamide]
